Experimental data published in the Kinase Knowledgebase extract (Sharma et al. 2016).
pIC50: −log10 of the molar value.

Biological target: CDK2 (UniProt P24941)
Test: Enzyme Assay

Row | Compound | pIC50
1 | COc1ccc(CNc2nc(N)nc3c2ncn3C(C)C)cc1 | 6.00
2 | CC(C)n1cnc2c(NCc3ccc(-c4ccccc4)cc3)nc(NCCO)nc21 | 5.52
3 | Clc1nc(NCc2ccncc2)c2ncn(C3CCCC3)c2n1 | < 5.30
4 | CC(C)n1cnc2c(NCCCc3ccccc3)nc(N(CCO)CCO)nc21 | 5.30
5 | COc1ccc(CNc2nc(NCCCC#N)nc3c2ncn3C(C)C)cc1 | 6.00
6 | CC(C)n1cnc2c(NCc3ccc(C4C=CC=CC4=S)cc3)nc(N(CCO)CCO)nc21 (stereo not given) | 6.22
7 | CC(C)n1cnc2c(NCc3ccc(-c4ccccc4)cc3)nc(N(C)c3ccco3)nc21 | < 5.30
8 | CNc1ccccc1C1CCCN1c1nc(NCc2ccc(OC)cc2)c2ncn(C(C)C)c2n1 (stereo not given) | < 5.30
9 | COc1ccc(CNc2nc(NCC(CO)CCO)nc3c2ncn3C(C)C)cc1 (stereo not given) | < 5.30
10 | COc1ccc(CNc2nc(NCC(O)CN)nc3c2ncn3C(C)C)cc1 (stereo not given) | 6.00
11 | CC(C)Cn1cnc2c(NCc3cccnc3)nc(Cl)nc21 | < 5.30
12 | COc1ccc(CNc2nc(NCC(O)c3c[nH]c4ccccc34)nc3c2ncn3C(C)C)cc1 (stereo not given) | 5.70
13 | CC(C)n1cnc2c(NCC3CC3)nc(N(CCO)CCO)nc21 | 5.70
14 | COc1ccc(CNc2nc(NCc3cccnc3)nc3c2ncn3C(C)C)cc1 | 6.00
15 | COC(=O)c1ccc(CNc2nc(Cl)nc3[nH]cnc23)cc1 | < 5.30
